SMILES strings stand for the structures.

A word on the melting point: it is the temperature, or range, at which the solid turns liquid. The molecule `CC(=O)NC[C@H]1CN(c2ccc(N3Cc4cnn(CC5CC5)c4C3)c(F)c2)C(=O)O1` (single isomer, unassigned) [Compound 73] had a melting point of 234 to 236 °C.

`CC(=O)NC[C@H]1CN(c2ccc(N3Cc4ccccc4C3)c(F)c2)C(=O)O1` [Compound 1, N-[[(5S)-3-[4-(1,3-Dihydro-2H-isoindol-2-yl)-3-fluorophenyl]-2-oxo-5-oxazolidinyl]methyl]acetamide] registered a melting point of 240 to 242 °C.

Consider `O=C1O[C@@H](CO)CN1c1ccc(N2Cc3cccnc3C2)c(F)c1` [Compound 2, (5R)-3-[4-(5,7-Dihydro-6H-pyrrolo[3,4-b]pyridin-6-yl)-3-fluorophenyl]-5-(hydroxymethyl)-2-oxazolidinone], for which the melting point is 208 to 212 °C (dec.).

Regarding `CC(=O)NC[C@H]1CN(c2ccc(-n3cc4cccnc4c3)c(F)c2)C(=O)O1` [Compound 4], the melting point is 220 to 225 °C (dec.).

Take `CC(=O)NC[C@@H]1CN(c2ccc(-n3cc4cccnc4c3)c(F)c2)C(=O)O1` [Compound 6]: the melting point was 181 to 185 °C (dec.).

In turn, `O=C1O[C@@H](COc2ccon2)CN1c1ccc(N2Cc3cccnc3C2)c(F)c1` [Compound 7] yielded a melting point of 182 to 185 °C.

`O=C1O[C@@H](COc2ccon2)CN1c1ccc(-n2cc3cccnc3c2)c(F)c1` [Compound 8]: the melting point fell in the range of 133 to 135 °C.

For the molecule `O=C1O[C@@H](COc2cnccn2)CN1c1ccc(N2Cc3cccnc3C2)c(F)c1` [Compound 9], the melting point lay in the range of 225 to 230 °C.

Turning to `O=C1O[C@@H](COc2cnccn2)CN1c1ccc(-n2cc3cccnc3c2)c(F)c1` [Compound 10], the melting point lay within 192 to 194 °C.

Regarding `O=C1O[C@@H](COc2cnsn2)CN1c1ccc(N2Cc3cccnc3C2)c(F)c1` [Compound 11], the melting point is 185 to 187 °C.

As to `O=C1O[C@@H](COc2cnsn2)CN1c1ccc(-n2cc3cccnc3c2)c(F)c1` [Compound 12], the melting point is 185 to 188 °C.

As to `CCC(=O)NC[C@H]1CN(c2ccc(N3Cc4cccnc4C3)c(F)c2)C(=O)O1` [Compound 13], the melting point was in the range of 110 to 112 °C.

`O=C(NC[C@H]1CN(c2ccc(N3Cc4cccnc4C3)c(F)c2)C(=O)O1)C1CC1` [Compound 15] gave a melting point of 235 to 240 °C.

Take `CS(=O)(=O)NC[C@H]1CN(c2ccc(N3Cc4cccnc4C3)c(F)c2)C(=O)O1` [Compound 20]: the melting point is 172 to 176 °C.

`CS/C(=N\C#N)NC[C@H]1CN(c2ccc(N3Cc4cccnc4C3)c(F)c2)C(=O)O1` [Compound 22] returned a melting point of 204 to 207 °C.

`N/C(=N\[N+](=O)[O-])NC[C@H]1CN(c2ccc(N3Cc4cccnc4C3)c(F)c2)C(=O)O1` [Compound 24]: the melting point fell in the range of 202 to 206 °C.

As to `CC(=O)NC[C@H]1CN(c2ccc(-n3cc4cc[n+]([O-])cc4c3)c(F)c2)C(=O)O1` [Compound 27, N-[[(5S)-3-[3-Fluoro-4-(5-oxido-2H-pyrrolo[3,4-c]pyridin-2-yl)phenyl]-2-oxo-5-oxazolidinyl]methyl]acetamide], the melting point was 219 to 225 °C (dec.).

For `CC(=O)NC[C@H]1CN(c2ccc(-n3cc4ccncc4c3)c(F)c2)C(=O)O1` [Compound 28], the melting point is 219 to 225 °C (dec.).

`CC(=O)NC[C@H]1CN(c2ccc(N3Cc4cnc(C)nc4C3)c(F)c2)C(=O)O1` [Compound 35]: the melting point was 234 °C (dec.).

As for `CC(=O)NC[C@H]1CN(c2ccc(N3Cc4cncnc4C3)c(F)c2)C(=O)O1` [Compound 36], the melting point lay within 230 to 232 °C.

In the case of `CC(=O)NC[C@H]1CN(c2ccc(-n3cc4cncnc4c3)c(F)c2)C(=O)O1` [Compound 37], the melting point was 164 to 166 °C.

Take `CC(=O)NC[C@H]1CN(c2ccc(N3Cc4cnc(-c5cnccn5)nc4C3)c(F)c2)C(=O)O1` [Compound 38]: the melting point lay in the range of 212 to 214 °C.

Consider `CC(=O)NC[C@H]1CN(c2ccc(N3Cc4cnc(-c5ccncc5)nc4C3)c(F)c2)C(=O)O1` [Compound 41], for which the melting point is 245 to 250 °C (dec.).

As to `CC(=O)NC[C@H]1CN(c2ccc(N3Cc4cnc(-c5ccccn5)nc4C3)c(F)c2)C(=O)O1` [Compound 42], the melting point is 216 to 220 °C.

Take `CC(=O)NC[C@H]1CN(c2ccc(N3Cc4cnc(-c5cccnc5)nc4C3)c(F)c2)C(=O)O1` [Compound 43]: the melting point was 265 to 270 °C (dec.).

In the case of `CC(=O)NC[C@H]1CN(c2ccc(N3Cc4c[nH]nc4C3)c(F)c2)C(=O)O1` [Compound 44], the melting point is 244 to 247 °C (dec.).

The molecule `CCCn1ncc2c1CN(c1ccc(N3C[C@H](CNC(C)=O)OC3=O)cc1F)C2` [Compound 45] had a melting point of 204 to 208 °C.

Take `CC(=O)NC[C@H]1CN(c2ccc(N3Cc4ccccc4C3=O)c(F)c2)C(=O)O1` [Compound 46, N-[[(5S)-3-[4-(1,3-dihydro-1-oxo-2H-isoindol-2-yl)-3-fluorophenyl]-2-oxo-5-oxazolidinyl]methyl]acetamide]: the melting point was 211 to 214 °C.

`CC(=O)NC[C@H]1CN(c2ccc(N3C(=O)c4ccccc4C3=O)c(F)c2)C(=O)O1` [Compound 47] showed a melting point of 240 to 242 °C.

As to `CC(=O)NC[C@H]1CN(c2ccc(N3Cc4cccnc4C3=O)c(F)c2)C(=O)O1` [Compound 48], the melting point is 230 to 232 °C.

Take `CC(=O)NC[C@H]1CN(c2ccc(N3Cc4ncccc4C3=O)c(F)c2)C(=O)O1` [Compound 49]: the melting point fell in the range of 207 to 209 °C.

Regarding `CC(=O)NC[C@H]1CN(c2ccc(N3Cc4cnn(C)c4C3)c(F)c2)C(=O)O1` [Compound 50], the melting point fell in the range of 211 to 213 °C.

`CC(=O)NC[C@H]1CN(c2ccc(N3Cc4cn(-c5ccccn5)nc4C3)c(F)c2)C(=O)O1` [Compound 51]: the melting point was 259 to 261 °C (dec.).

`CC(=O)NC[C@H]1CN(c2ccc(N3Cc4cnn(C(C)(C)C)c4C3)c(F)c2)C(=O)O1` [Compound 52] gave a melting point of 155 to 157 °C.

In turn, `CC(=O)NC[C@H]1CN(c2ccc(N3Cc4cnn(CCO)c4C3)c(F)c2)C(=O)O1` [Compound 53] yielded a melting point of 163 to 165 °C.

Take `CC(=O)NC[C@H]1CN(c2ccc(N3Cc4cn(CCO)nc4C3)c(F)c2)C(=O)O1` [Compound 65, N-[[(5S)-3-[4-[2,6-dihydro-2-(2-hydroxyethyl)pyrrolo[3,4-c]pyrazol-5(4H)-yl]-3-fluorophenyl]-2-oxo-5-oxazolidinyl]methyl]acetamide]: the melting point is 232 to 242 °C (dec.).

In the case of `CC(=O)NC[C@H]1CN(c2ccc(N3Cc4cn(C[C@H](O)CO)nc4C3)c(F)c2)C(=O)O1` [Compound 66], the melting point was in the range of 188 to 191 °C.

For the molecule `CC(=O)NC[C@H]1CN(c2ccc(N3Cc4cn(CCCO)nc4C3)c(F)c2)C(=O)O1` [Compound 68], the melting point is 171 to 173 °C.

In the case of `CC(=O)NC[C@H]1CN(c2ccc(N3Cc4cn(C[C@@H](O)CO)nc4C3)c(F)c2)C(=O)O1` [Compound 69], the melting point was 184 to 188 °C.

`CC(=O)NC[C@H]1CN(c2ccc(N3Cc4cn(CC(F)(F)F)nc4C3)c(F)c2)C(=O)O1` [Compound 70]: the melting point was 170 to 172 °C.

With `CNC(=S)n1cc2c(n1)CN(c1ccc(N3C[C@H](CNC(C)=O)OC3=O)cc1F)C2` [Compound 87], the melting point is 246 to 249 °C.

Consider `[N-]=[N+]=NC[C@H]1CN(c2ccc(N3Cc4cccnc4C3)c(F)c2)C(=O)O1` [Example 7], for which the melting point was 175 to 180 °C (dec.).
